# Laboratory results taken from patent publication US9211238B2, “Carrier system for the transport of active substances into the skin” (priority 2010, dated 2015).
# Assay: Anti-oxidative potential (AP) in vitro, test radical DPPH, ESR spectroscopy
# Format: biochemical
# Details: 1% ferulic acid
# Protocol: The anti-oxidative potential (AP) of all described formulations was determined in vitro. In this method the formulations were incubated with a test radical (DPPH) and afterwards the reduction of these radicals over the time was measured by ESR (electron spin resonance spectroscopy). AP=amount of free radicals/mg of tested substance*minute.
smiles,measurement,value
"COc1cc(/C=C/C(=O)O)ccc1O [1% ferulic acid (EtOH/water), ferulic acid]",anti-oxidative potential (AP),AP = 723 amount of free radicals/mg of tested substance*minute
